In patent US10125134B2 (Mirati Therapeutics, Inc., priority 2016, dated 2018):
pIC50: −log10 of the molar value. Where a name gives a salt, the structure may show the parent alone. Read-outs that look alike come from different tables or passages of the source.

Assays:
KRas G12C = KRas G12C (Homo sapiens, UniProt P01116, C118S/C51S/C80L/G12C); assay: KRas G12C Modification Assay (LCMS detection of covalent adduct); type: binding; conditions: normalized percent of control; tested at 5 μM concentration for 3 hours
In short: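 Cys-light KRas G12C mutant protein incubated with compound in K-Ras assay buffer, reactions quenched at set time points with 25 mM acetic acid and analysed by intact-protein LC/MS on a C-3 column. Deconvoluted mass heights expressed as percent of control (POC) relative to compound-free protein.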

[1] = system: NCI-H358 cells (express KRas G12C), Phospho-ERK; assay: Cellular inhibition of KRas G12C: Phospho-ERK in NCI-H358 cells; type: cell-based; conditions: pERK(Thr202/Tyr204) normalized with GAPDH, NCI-H358 cells, 3 hours, read-out: IC50
In short: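 IC50 derived by 4-parameter fit of GAPDH-normalized pERK(Thr202/Tyr204) signal, as percent of DMSO control. Signal came from in-cell immunodetection with infrared secondaries after 3 h compound exposure of KRas G12C NCI-H358 cells at 0.5% DMSO.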

Row | POC (KRas G12C) | Compound | pIC50 ([1]; Homo sapiens, NCI-H358, 3 h) | pIC50 ([1]; Homo sapiens) | pIC50 [1]
1 | C (“C”>50% POC) | C=CC(=O)N1CC2(C1)CN(c1nc(OCCCN(C)C)nc3c1CCN(c1cc(O)cc4ccccc14)C3)C2 [Example 20, 1-(6-(2-(3-(dimethylamino)propoxy)-7-(3-hydroxynaphthalen-1-yl)-5,6,7,8-tetrahydropyrido[3,4-d]pyrimidin-4-yl)-2,6-diazaspiro[3.3]heptan-2-yl)prop-2-en-1-one] | < 6.00 | – | –
2 | C (“C”>50% POC) | CN1CCC[C@H]1COc1nc2c(c(N3CCN(C(=O)/C=C/CN4CCCC4)[C@@H](CC#N)C3)n1)CCN(c1cccc(Cl)c1C(F)(F)F)C2 [Example 347, 2-[(2S)-4-[7-[3-chloro-2-(trifluoromethyl)phenyl]-2-[[(2S)-1-methylpyrrolidin-2-yl]methoxy]-6,8-dihydro-5H-pyrido[3,4-d]pyrimidin-4-yl]-1-[(E)-4-pyrrolidin-1-ylbut-2-enoyl]piperazin-2-yl]acetonitrile] | 6.00 to 10.00 | – | –
3 | C (“C”>50% POC) | C=CC(=O)N1CCN(c2nc(OC[C@@H]3CCCN3C)nc3c2CCN(c2cncc(Cl)c2C(F)(F)F)C3)C[C@@H]1CC#N [Example 385, 2-((S)-1-acryloyl-4-(7-(5-chloro-4-(trifluoromethyl)pyridin-3-yl)-2-(((S)-1-methylpyrrolidin-2-yl)methoxy)-5,6,7,8-tetrahydropyrido[3,4-d]pyrimidin-4-yl)piperazin-2-yl)acetonitrile] | 6.00 to 10.00 | – | –
4 | C (“C”>50% POC) | C=CC(=O)N1CCN(c2nc(OC[C@@H]3CCCN3C)nc3c2CCN(c2nccc4ccccc24)C3)CC1CC#N (stereo partly drawn) [Example 258, 2-[4-[7-(1-isoquinolyl)-2-[[(2S)-1-methylpyrrolidin-2-yl]methoxy]-6,8-dihydro-5H-pyrido[3,4-d]pyrimidin-4-yl]-1-prop-2-enoyl-piperazin-2-yl]acetonitrile] | < 6.00 | – | –
5 | C (“C”>50% POC) | CC#CC(=O)N1CCN(c2nc(OC[C@@H]3CCCN3C)nc3c2CCN(c2cccc4cccc(Cl)c24)C3)C[C@@H]1CC#N [Example 391, 2-((S)-1-(but-2-ynoyl)-4-(7-(8-chloronaphthalen-1-yl)-2-(((S)-1-methylpyrrolidin-2-yl)methoxy)-5,6,7,8-tetrahydropyrido[3,4-d]pyrimidin-4-yl)piperazin-2-yl)acetonitrile] | 6.00 to 10.00 | – | –
6 | C (“C”>50% POC) | C=CC(=O)N1CCN(c2nc(OC[C@@H]3CCCN3C)nc3c2CCN(c2cccnc2C(F)(F)F)C3)CC1CC#N (stereo partly drawn) [Example 226, 2-(1-acryloyl-4-(2-(((S)-1-methylpyrrolidin-2-yl)methoxy)-7-(2-(trifluoromethyl)pyridin-3-yl)-5,6,7,8-tetrahydropyrido[3,4-d]pyrimidin-4-yl)piperazin-2-yl)acetonitrile] | 6.00 to 10.00 | – | –
7 | C (“C”>50% POC) | C=CC(=O)N1CCN(c2nc(N3CC(N(C)C)C3)nc3c2CCN(c2cc(O)cc4ccccc24)C3)CC1 [Example 128, 1-(4-(2-(3-(dimethylamino)azetidin-1-yl)-7-(3-hydroxynaphthalen-1-yl)-5,6,7,8-tetrahydropyrido[3,4-d]pyrimidin-4-yl)piperazin-1-yl)prop-2-en-1-one] | < 6.00 | – | –
8 | C (“C”>50% POC) | C=CC(=O)N1CCN(c2nc(OC[C@@H]3[C@@H](O)CCN3C)nc3c2CCN(c2cccc4ccccc24)C3)C[C@@H]1CC#N [Example 390, 2-((S)-1-acryloyl-4-(2-(((2R,3S)-3-hydroxy-1-methylpyrrolidin-2-yl)methoxy)-7-(naphthalen-1-yl)-5,6,7,8-tetrahydropyrido[3,4-d]pyrimidin-4-yl)piperazin-2-yl)acetonitrile] | 6.00 to 10.00 | – | –
9 | C (“C”>50% POC) | C=CC(=O)N1CCN(c2nc(OCCO)nc3c2CCN(c2cc(O)cc4ccccc24)C3)CC1 [Example 142, 1-[4-[2-(2-hydroxyethoxy)-7-(3-hydroxy-1-naphthyl)-6,8-dihydro-5H-pyrido[3,4-d]pyrimidin-4-yl]piperazin-1-yl]prop-2-en-1-one] | < 6.00 | – | –
10 | A (“A”≤25% POC) | C=CC(=O)N1CCN(c2nc(OCCCN3CCOCC3)nc3c2CCN(c2cc(O)cc(C4CC4)c2)C3)CC1 [Example 41, 1-(4-(7-(3-cyclopropyl-5-hydroxyphenyl)-2-(3-morpholinopropoxy)-5,6,7,8-tetrahydropyrido[3,4-d]pyrimidin-4-yl)piperazin-1-yl)prop-2-en-1-one trifluoroacetate] | – | < 6.00 | –
11 | C (“C”>50% POC) | C=CC(=O)N1CCN(c2nc(OC[C@@H]3CCN(C)C3)nc3c2CCN(c2cccc4cccc(Cl)c24)C3)C[C@@H]1CC#N [Example 361, 2-[(2S)-4-[7-(8-chloro-1-naphthyl)-2-[[(3R)-1-methylpyrrolidin-3-yl]methoxy]-6,8-dihydro-5H-pyrido[3,4-d]pyrimidin-4-yl]-1-prop-2-enoyl-piperazin-2-yl]acetonitrile] | 6.00 to 10.00 | – | –
12 | C (“C”>50% POC) | C=CC(=O)N1CCN(c2nc(OCC3CCCN(C)C3)nc3c2CCN(c2cc(O)cc4ccccc24)C3)CC1 (stereo not drawn) [Example 72, 1-(4-(7-(3-hydroxynaphthalen-1-yl)-2-((1-methylpiperidin-3-yl)methoxy)-5,6,7,8-tetrahydropyrido[3,4-d]pyrimidin-4-yl)piperazin-1-yl)prop-2-en-1-one] | 6.00 to 10.00 | – | –
13 | C (“C”>50% POC) | C=CS(=O)(=O)N1CCN(c2nc(OC[C@@H]3CCCN3C)nc3c2CCN(c2cccc(C)c2C)C3)CC1 [Example 343, (S)-7-(2,3-dimethylphenyl)-2-((1-methylpyrrolidin-2-yl)methoxy)-4-(4-(vinylsulfonyl)piperazin-1-yl)-5,6,7,8-tetrahydropyrido[3,4-d]pyrimidine] | < 6.00 | – | –
14 | C (“C”>50% POC) | C=CC(=O)N1CCN(c2nc(OCC(C)(C)N(C)C)nc3c2CCN(c2cccc4ccccc24)C3)CC1CC#N (stereo not drawn) [Example 396, 2-(1-acryloyl-4-(2-(2-(dimethylamino)-2-methylpropoxy)-7-(naphthalen-1-yl)-5,6,7,8-tetrahydropyrido[3,4-d]pyrimidin-4-yl)piperazin-2-yl)acetonitrile] | – | – | 6.00 to 10.00
15 | C (“C”>50% POC) | C[C@H](CN(C)C)Oc1nc2c(c(N3CCN(C(=O)/C=C/CN(C)C)CC3)n1)CCN(c1cc(O)cc3ccccc13)C2 [Example 122, (R,E)-4-(dimethylamino)-1-(4-(2-((1-(dimethylamino)propan-2-yl)oxy)-7-(3-hydroxynaphthalen-1-yl)-5,6,7,8-tetrahydropyrido[3,4-d]pyrimidin-4-yl)piperazin-1-yl)but-2-en-1-one bis-trifluoroacetate] | – | < 6.00 | –
16 | C (“C”>50% POC) | C=CC(=O)N1CCN(c2nc(OC[C@H]3CCCCN3C)nc3c2CCN(c2cc(O)cc4ccccc24)C3)CC1 [Example 195, (R)-1-(4-(7-(3-hydroxynaphthalen-1-yl)-2-((1-methylpiperidin-2-yl)methoxy)-5,6,7,8-tetrahydropyrido[3,4-d]pyrimidin-4-yl)piperazin-1-yl)prop-2-en-1-one] | < 6.00 | – | –
17 | C (“C”>50% POC) | C=CC(=O)N1CCN(c2nc(OC[C@@H]3CCCN3C)nc3c2CCN(c2ccccc2C(F)(F)F)C3)CC1 [Example 159, (S)-1-(4-(2-((1-methylpyrrolidin-2-yl)methoxy)-7-(2-(trifluoromethyl)phenyl)-5,6,7,8-tetrahydropyrido[3,4-d]pyrimidin-4-yl)piperazin-1-yl)prop-2-en-1-one] | < 6.00 | – | –
18 | C (“C”>50% POC) | C=CC(=O)N1CCN(c2nc(OCC(O)CO)nc3c2CCN(c2cc(O)cc4ccccc24)C3)CC1 (stereo not drawn) [Example 143, 1-[4-[2-(2,3-dihydroxypropoxy)-7-(3-hydroxy-1-naphthyl)-6,8-dihydro-5H-pyrido[3,4-d]pyrimidin-4-yl]piperazin-1-yl]prop-2-en-1-one] | < 6.00 | – | –
19 | C (“C”>50% POC) | C=CC(=O)N1CCN(c2nc(OC[C@@H]3C[C@@H](OC)CN3CC)nc3c2CCN(c2cccc(Cl)c2C(F)(F)F)C3)C[C@@H]1CC#N [Example 335, 2-[(2S)-4-[7-[3-chloro-2-(trifluoromethyl)phenyl]-2-[[(2S,4R)-1-ethyl-4-methoxy-pyrrolidin-2-yl]methoxy]-6,8-dihydro-5H-pyrido[3,4-d]pyrimidin-4-yl]-1-prop-2-enoyl-piperazin-2-yl]acetonitrile] | 6.00 to 10.00 | – | –

Row | Compound | POC (KRas G12C) | pIC50 ([1]; Homo sapiens, NCI-H358, 3 h) | pIC50 ([1]; Homo sapiens) | pIC50 [1]
20 | C=CC(=O)N1CCN(c2nc(OCCCN3CCOCC3)nc3c2CCN(c2cc(O)cc4cc(C)[nH]c24)C3)CC1 [Example 167, 1-(4-(7-(5-hydroxy-2-methyl-1H-indol-7-yl)-2-(3-morpholinopropoxy)-5,6,7,8-tetrahydropyrido[3,4-d]pyrimidin-4-yl)piperazin-1-yl)prop-2-en-1-one] | B (“B”>25% POC−≤50% POC) | – | < 6.00 | –
21 | C=CC(=O)N1CCN(c2nc(OCCCN3CCOCC3)nc3c2CCN(c2cc(O)cc4cccnc24)C3)CC1 [Example 205, 1-(4-(7-(6-hydroxyquinolin-8-yl)-2-(3-morpholinopropoxy)-5,6,7,8-tetrahydropyrido[3,4-d]pyrimidin-4-yl)piperazin-1-yl)prop-2-en-1-one] | C (“C”>50% POC) | – | < 6.00 | –
